Data from patent US8664384B2, “N6-(ferrocenmethyl)quinazolin-2,4,6-triamina (H2) and the derivatives and prodrugs thereof as antileishmanial, antiprotozoal, antiparasitic and antimicrobial agents” (priority 2010, dated 2014).
Read-outs that look alike come from different tables or passages of the source.

Columns and labels:
[1] = tested on: Leishmania mexicana MNYC/BZ/62/M379 reference strain; assay type: cell-based
Experimental: FIG. 3: A plot showing the H2 prodrug activity toward the in vitro growth of Leishmania Mexicana. To obtain a higher sensitivity in this experiment, the MNYC/BZ/62/M379 reference strain, which has a higher sensitivity to H2 than does MHOM/MX/01/Tab3, was used. The number of parasites/ml was determined at 72 hours of incubation using 100 mM of each compound in four replicates. The culture conditions were the same as described in FIG. 1.
The following is a list of Leishmania mexicana growth inhibition activity by the prodrugs compared to H2 and a control.

mice = assay: in vivo toxicity studies in mice; conditions: oral, parenteral, or dermal administration in mice
From the text: (§1) Cytotoxicity against murine cells was not found in in vitro studies or in vivo studies using oral, parenteral, or dermal administration in mice.

[2] = tested on: Leishmania mexicana strain MHOM/MX/01/Tab3; assay: in vitro growth of Leishmania mexicana, parasite count in Neubauer chamber; assay type: cell-based
Experimental: FIG. 1: The biological activity of H2 toward the in vitro growth of Leishmania mexicana strain MHOM/MX/01/Tab3. A growth curve collected after 72 hours of parasite cultivation in a Neubauer chamber in the presence of the H2 is shown. The H2 concentration is shown on the horizontal axis, whereas the number of parasites/ml is shown on the vertical axis. The experiment was performed at room temperature using high-glucose Dulbecco's Modified Eagle's Medium with 10% fetal bovine serum.
FIG. 2: Photograph obtained using an inverted microscope showing the inhibition of Leishmania growth by H2. The parasite culture shown in the left image was grown under the same conditions described in FIG. 1 but with the absence of H2.
At greater than 5 μg/ml, H2 is lethal to Leishmania in less than 5 hours. The in vitro effect is apparent at 30 minutes after application. The parasite structure is modified such that it loses its characteristic form, loses refringence, becomes spherical, and is incapable of multiplying. H2 has a CL50 of 2.6 μm/ml for the Leishmania mexicana MHOM/MX/01/Tab3 strain. The mechanism of cellular damage could not be identified by means of annexin for concentrations greater than 10 μg/ml; it is thought that a necrosis process rather than apoptosis is likely involved.

[3] = tested on: microorganisms, parasites, and protozoa, including members of the Leishmania genus; assay: antimicrobial, antiparasitic and leishmanicide activity (general statement); assay type: cell-based; conditions: from 0.1 μg/ml to greater than 100 μg/ml
Experimental: The N^6-(ferrocenmethyl)quinazoline-2,4,6-triamine compound, which we refer to as H2, presents antimicrobial, antiparasitic, and leishmanicide activity from 0.1 μg/ml to greater than 100 μg/ml. H2 can be used in the treatment of infections caused by microorganisms, parasites, and protozoa, including members of the Leishmania genus in particular.

[4] = tested on: Leishmania mexicana cultures (Tab3 or M379 strain); assay: elimination of parasites in Leishmania mexicana cultures; assay type: cell-based; conditions: 3 μg/ml; 10^6 parasites/ml; Dulbecco's medium with 4.5 mg/mL glucose and 10% fetal bovine serum
Experimental: H2 (3 μg/ml) eliminates more than 90% of the parasites in Leishmania mexicana cultures (Tab3 or M379 strain) with 10^6 parasites/ml in Dulbecco's medium modified with 4.5 mg/mL glucose and 10% fetal bovine serum.

murine cells = assay: in vitro cytotoxicity against murine cells; assay type: cell-based; conditions: in vitro studies
From the text: as §1

Molecule	% of Leishmania Growth Inhibition [1] [%]	% of Leishmania Growth Inhibition ([1]; 72 hours of incubation, 100 mM of each compound, four replicates, M379 strain (FIG. 3)) [%]	cytotoxicity in vivo (mice)	effect on parasite culture (inverted microscope, FIG. 2) ([2]; 1 μg/ml H2, conditions of FIG. 1)	time until lethal to Leishmania ([2]; H2 at greater than 5 μg/ml)	CL50 ([2]; Leishmania mexicana MHOM/MX/01/Tab3 strain) [μm/ml]	speed of killing the total amount of parasites compared to meglumine antimoniate, metronidazole or hydroxyurea ([2]; faster than previously described compounds, at doses ten-fold lower or less)	time at which the in vitro effect is apparent after application ([2]; in vitro) [min]	concentration at which antimicrobial, antiparasitic, and leishmanicide activity is presented [3] [µg/mL]	parasites eliminated [4]	cytotoxicity against murine cells (murine cells)
[Fe+2].c1cc[cH-]c1.c1ccc(NC[c-]2cccc2)cc1 [FBC, N-(ferrocenmethyl)aniline, reference compound]	32										
N^6-(ferrocenmethyl)quinazoline-2,4,6-triamine [Compound H2]		100	not found	clear lack of growth and destruction of the parasite	less than 5 hours	2.6	up to 10 fold	30	≥ 0.1	more than 90%	not found
